Results as given in paper PMC6474793 (Biochemistry, 2018).

How the values were obtained:
[1] = Fe binding in CAS assay; reported previously; cited from earlier work
[2] = target: BauB (Acinetobacter baumannii, UniProt Q76HK0); experiment: BauB binding by intrinsic Trp fluorescence quenching

For `C[C@@H]1ON(CCc2c[nH]cn2)C(=O)[C@H]1NC(=O)c1cccc(O)c1O` [compound 1, acinetobactin], the “CAS (+/-)” value [1] is listed as “+” and the Kd [2] is listed as 300 ± 100 nM.
